The values that follow come from patent US7064144B2, “Imidazole derivatives as adenosine deaminase inhibitors” (Astellas Pharma Inc., priority 2001, dated 2006).

The term melting point denotes the temperature, or range, at which the solid turns liquid. In general, IC50 refers to the concentration needed to halve the response being measured. Read a low IC50 as inhibition by little substance.

Where only a bound is given, the exact number is not on record here.

System in one data set: not given
Experiment: not given
Conditions: not given
With `C[C@H](O)[C@H](CSc1cccc2ccccc12)n1cnc(C(N)=O)c1.Cl`, the melting point was > 168 °C (dec.).

For `C[C@H](O)[C@@H](CCOc1ccc(-c2ccccc2)cc1)n1cnc(C(N)=O)c1` [Example 28, 1-[(2S,3R)-5-(1,1′-biphenyl-4-yloxy)-2-hydroxy-3-pentyl]imidazole-4-carboxamide], the melting point was in the range of 191 to 193 °C.

Consider `C[C@H](O)[C@@H](CCOc1ccc2c(ccn2C)c1)n1cnc(C(N)=O)c1` [Example 75, 1-[(2S,3R)-2-hydroxy-5-(1-methyl-1H-indol-5-yloxy)-3-pentyl]imidazole-4-carboxamide], for which the melting point lay in the range of 211 to 213.5 °C.

As to `C[C@H](O)[C@@H](COc1ccc(Cl)c(Cl)c1)n1cnc(C(N)=O)c1` [Example 81, 1-{(1R,2S)-1-[(3,4-dichlorophenoxy)methyl]-2-hydroxypropyl}-1H-imidazole-4-carboxamide], the melting point lay in the range of 115 to 121 °C.

The compound `C[C@H](O)[C@@H](CCOc1cccc(-c2ccc(Cl)nc2)c1)n1cnc(C(N)=O)c1` [Example 87, 1-{(2S,3R)-5-[3-(6-chloro-3-pyridyl)phenoxy]-2-hydroxy-3-pentyl}imidazole-4-carboxamide] gave a melting point of 166 to 168 °C.

As for `C[C@H](O)[C@@H](CCOc1ccc2ccc(Cl)cc2c1)n1cnc(C(N)=O)c1` [Example 97, 1-[(2S,3R)-5-(7-chloro-2-naphthyloxy)-2-hydroxy-3-pentyl]imidazole-4-carboxamide], the melting point was 139 to 141 °C.

`C[C@H](O)[C@H](CSc1ccc2ccccc2c1)n1cnc(C(N)=O)c1` [Example 102, 1-{(1R,2S)-2-hydroxy-1-[(2-naphthylthio)methyl]propyl}-1H-imidazole-4-carboxamide]: the melting point is > 108 °C (dec.).

As for `C[C@H](O)[C@H](CSc1cccc(Cl)c1Cl)n1cnc(C(N)=O)c1` [Example 104, 1-{(1R,2S)-1-{[(2,3-dichlorophenyl)thio]methyl}-2-hydroxypropyl}-1H-imidazole-4-carboxamide], the melting point was > 120 °C (dec.).

The target in the next data set is T1, Human ADA (Homo sapiens, UniProt P00813).
T1 construct: made in house
T1 sequence (P00813 1-363): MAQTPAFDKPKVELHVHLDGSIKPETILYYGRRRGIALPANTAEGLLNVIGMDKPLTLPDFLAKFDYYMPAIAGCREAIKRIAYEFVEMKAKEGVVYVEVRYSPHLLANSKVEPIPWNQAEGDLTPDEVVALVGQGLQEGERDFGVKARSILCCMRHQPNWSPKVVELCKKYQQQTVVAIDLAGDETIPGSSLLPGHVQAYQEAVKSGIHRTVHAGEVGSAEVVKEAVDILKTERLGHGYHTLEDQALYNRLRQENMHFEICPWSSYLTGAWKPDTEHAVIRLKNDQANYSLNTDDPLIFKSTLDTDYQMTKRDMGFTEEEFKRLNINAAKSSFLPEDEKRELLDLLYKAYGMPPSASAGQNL
As to the kind of experiment: Adenosine Deaminase (ADA) Enzyme Assay. The format is biochemical. Conditions: 50% inhibition of Vmax vs vehicle; 0.16 μg/ml ADA, 0.1 mM adenosine, 10 mM phosphate buffer saline pH 7.4, room temperature, A265. An excerpt: Adenosine Deaminase (ADA) Enzyme Assay
• 1-[(2S,3R)-5-(1,1′-biphenyl-3-yloxy)-2-hydroxy-3-pentyl]imidazole-4-carboxamide (Example 20) • 1-{(2S,3R)-2-hydroxy-5-[3-(2-thienyl)phenoxy]-3-pentyl}imidazole-4-carboxamide (Example 32) • 1-[(2S,3R)-2-hydroxy-5-(2-quinolyloxy)-3-pentyl]imidazole-4-carboxamide (Example 49) • 1-[(2S,3R)-2-hydroxy-5-(2-naphthylthio)-3-pentyl]imidazole-4-carboxamide (Example 76) • 1-[(2S,3R)-2-hydroxy-5-(2-quinolylthio)-3-pentyl]imidazole-4-carboxamide (Example 78) Test Method:
The reaction velocity (V) is measured by a change in absorbance at 265 nm (A265) resulting from the deamination of adenosine. Human ADA was expressed and purified from ADA-deficient bacterial strain. Reaction mixtures of a total volume of 200 μl contained 0.16 μg/ml of ADA and 0.1 mM of adenosine and test compound in 10 mM phosphate buffer saline (pH 7.4). The reaction was started by addition of ADA to a mixture of adenosine and test compound. The reaction was followed at room temperature by recording decrease in A265 for 3 minutes in SPECTRAmax 250 (Molecular Devices, USA) to automatically calculate Vmax. Inhibitory potency of test compound was expressed as IC50 value, the drug concentration required to produce 50% inhibition of Vmax in comparison to vehicle treatment.
On to `C[C@H](O)[C@@H](CCOc1cccc(-c2ccccc2)c1)n1cnc(C(N)=O)c1` [Example 20, 1-[(2S,3R)-5-(1,1′-biphenyl-3-yloxy)-2-hydroxy-3-pentyl]imidazole-4-carboxamide], for which the half-inhibitory concentration (IC50) is under 20 nM.

Turning to `C[C@H](O)[C@@H](CCOc1cccc(-c2cccs2)c1)n1cnc(C(N)=O)c1` [Example 32, 1-{(2S,3R)-2-hydroxy-5-[3-(2-thienyl)phenoxy]-3-pentyl}imidazole-4-carboxamide], the 50% inhibitory concentration (IC50) was under 20 nM.

For the compound `C[C@H](O)[C@@H](CCOc1ccc2ccccc2n1)n1cnc(C(N)=O)c1` [Example 49, 1-[(2S,3R)-2-hydroxy-5-(2-quinolyloxy)-3-pentyl]imidazole-4-carboxamide], the IC50 was under 20 nM.

In turn, `C[C@H](O)[C@@H](CCSc1ccc2ccccc2c1)n1cnc(C(N)=O)c1` [Example 76, 1-[(2S,3R)-2-hydroxy-5-(2-naphthylthio)-3-pentyl]imidazole-4-carboxamide] displayed an IC50 of under 20 nM.

`C[C@H](O)[C@@H](CCSc1ccc2ccccc2n1)n1cnc(C(N)=O)c1` [Example 78, 1-[(2S,3R)-2-hydroxy-5-(2-quinolylthio)-3-pentyl]imidazole-4-carboxamide] showed a half-maximal inhibitory concentration (IC50) of under 20 nM.
